From ChEMBL document CHEMBL1201862, “PubChem BioAssay data set” (2004)
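Five concentrations, 48 hours, 96-well plates. Abbreviation: GI50, concentration required for 50% inhibition of growth.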 Calls of active or inactive are those of the source. Rule as the data show it: active = GI50 up to about 1.1 µM and inactive = higher. Non-standard residues stand in square brackets, D forms with d. Residues, ends and D or L forms follow the SMILES beside them. *: point of attachment. Ac5c = NC1(C(=O)O)CCCC1; Boc = CC(C)(C)OC(=O)*; tBu = CC(C)(C)*

Experiments:
Experiment in all cases: NCI tumour cell line growth inhibition, 48 h
786-0 = tested on: 786-0
NCI/ADR-RES = tested on: NCI/ADR-RES
UACC-257 = tested on: UACC-257
HCT-116 = tested on: HCT-116
IGROV-1 = tested on: IGROV-1
RPMI-8226 = tested on: RPMI-8226
TK-10 = tested on: TK-10
SF-539 = tested on: SF-539
ACHN = tested on: ACHN
K562 = tested on: K562
UACC-62 = tested on: UACC-62
SF-295 = tested on: SF-295
LOX IMVI = tested on: LOX IMVI
SNB-19 = tested on: SNB-19
SK-MEL-2 = tested on: SK-MEL-2
MCF7 = tested on: MCF7
SK-MEL-28 = tested on: SK-MEL-28
NCI-H23 = tested on: NCI-H23
OVCAR-3 = tested on: OVCAR-3
SN12C = tested on: SN12C

Measured: GI50

CC1=NN(c2nc(N)nc(CS(C)(=O)=O)n2)C(C)(C)C1
inactive: 786-0 > 100 µM | NCI/ADR-RES > 100 µM | UACC-257 > 100 µM | HCT-116 > 100 µM | IGROV-1 > 100 µM | RPMI-8226 > 100 µM | TK-10 > 100 µM | SF-539 > 100 µM | ACHN > 100 µM | K562 > 100 µM | UACC-62 > 100 µM | SF-295 > 100 µM | LOX IMVI > 100 µM | SNB-19 > 100 µM | SK-MEL-2 > 100 µM | MCF7 > 100 µM | SK-MEL-28 > 100 µM | NCI-H23 > 100 µM

CC(OC(C)(C)C)C1NC(=O)C(CCCCNC(=O)OC(C)(C)C)NC(=O)C(Cc2c[nH]c3ccccc23)NC(=O)C(Cc2ccccc2)NC(=O)C2(CCCC2)NC(=O)C(Cc2ccccc2)NC1=O (centres undefined) (cyclo([Ac5c]FWK(Boc)T(tBu)F); configuration not given here)
inactive: OVCAR-3 26 µM | 786-0 16 µM | NCI/ADR-RES > 100 µM | SN12C 29.9 µM | UACC-257 20.7 µM | HCT-116 33.3 µM | IGROV-1 16.2 µM | RPMI-8226 10.7 µM | TK-10 24.8 µM | SF-539 36.9 µM | ACHN 32.4 µM | K562 27.8 µM | UACC-62 21.6 µM | SF-295 29.9 µM | LOX IMVI 19.2 µM | SNB-19 34.2 µM | MCF7 18.5 µM | SK-MEL-28 22.3 µM | NCI-H23 36.9 µM

Cc1ccc2nc(-c3ccccc3)cc(=O)n2c1
inactive: OVCAR-3 > 100 µM | 786-0 > 100 µM | NCI/ADR-RES 69.7 µM | SN12C > 100 µM | UACC-257 > 10 µM | HCT-116 > 100 µM | IGROV-1 > 100 µM | RPMI-8226 > 100 µM | TK-10 > 100 µM | SF-539 > 100 µM | ACHN > 100 µM | K562 > 100 µM | UACC-62 > 100 µM | SF-295 > 100 µM | SNB-19 > 100 µM | MCF7 > 100 µM | SK-MEL-28 > 100 µM | NCI-H23 > 100 µM

N=C(/C=C/c1ccc(-c2cn3cc(/C=C/C(=N)N4CCCC4)ccc3n2)cc1)N1CCCC1
inactive: OVCAR-3 60.1 µM | 786-0 85.5 µM | NCI/ADR-RES > 100 µM | SN12C > 100 µM | UACC-257 78.7 µM | HCT-116 90.8 µM | IGROV-1 > 100 µM | RPMI-8226 > 100 µM | TK-10 > 100 µM | SF-539 47.3 µM | ACHN 68.9 µM | K562 > 100 µM | UACC-62 > 100 µM | SF-295 > 100 µM | SNB-19 > 100 µM | SK-MEL-2 > 100 µM | MCF7 > 100 µM | SK-MEL-28 > 100 µM | NCI-H23 > 100 µM

C/C=C1/CC(C)C(C)(O)C(=O)OCC2C(O)CN3CCC(OC1=O)C23 (centres undefined)
inactive: 786-0 > 100 µM | NCI/ADR-RES > 100 µM | SN12C > 100 µM | UACC-257 > 100 µM | HCT-116 > 100 µM | IGROV-1 > 100 µM | RPMI-8226 > 100 µM | TK-10 > 100 µM | SF-539 > 100 µM | ACHN > 100 µM | K562 > 100 µM | UACC-62 > 100 µM | SF-295 > 100 µM | LOX IMVI > 100 µM | SNB-19 > 100 µM | SK-MEL-2 > 100 µM | MCF7 > 100 µM | NCI-H23 > 100 µM

CCOc1ccc2c(c1)/C(=C(\C(Cl)=C(Cl)Cl)[N+](=O)[O-])N2
inactive: OVCAR-3 > 100 µM | 786-0 > 100 µM | NCI/ADR-RES > 100 µM | SN12C > 100 µM | UACC-257 > 100 µM | HCT-116 > 100 µM | RPMI-8226 69.3 µM | SF-539 > 100 µM | ACHN > 100 µM | K562 51.6 µM | UACC-62 > 100 µM | SF-295 > 100 µM | SNB-19 > 100 µM | SK-MEL-2 > 100 µM | MCF7 > 100 µM | SK-MEL-28 > 100 µM | NCI-H23 > 100 µM
